Assay results published in the Kinase Knowledgebase extract (Sharma et al. 2016).

Molecular target: PIK3CG (human) (UniProt P48736)
Experiment: Inhibition of PIK3CG Kinase Activity

PIK3CG (human), sequence (P48736 whole entry, looked up): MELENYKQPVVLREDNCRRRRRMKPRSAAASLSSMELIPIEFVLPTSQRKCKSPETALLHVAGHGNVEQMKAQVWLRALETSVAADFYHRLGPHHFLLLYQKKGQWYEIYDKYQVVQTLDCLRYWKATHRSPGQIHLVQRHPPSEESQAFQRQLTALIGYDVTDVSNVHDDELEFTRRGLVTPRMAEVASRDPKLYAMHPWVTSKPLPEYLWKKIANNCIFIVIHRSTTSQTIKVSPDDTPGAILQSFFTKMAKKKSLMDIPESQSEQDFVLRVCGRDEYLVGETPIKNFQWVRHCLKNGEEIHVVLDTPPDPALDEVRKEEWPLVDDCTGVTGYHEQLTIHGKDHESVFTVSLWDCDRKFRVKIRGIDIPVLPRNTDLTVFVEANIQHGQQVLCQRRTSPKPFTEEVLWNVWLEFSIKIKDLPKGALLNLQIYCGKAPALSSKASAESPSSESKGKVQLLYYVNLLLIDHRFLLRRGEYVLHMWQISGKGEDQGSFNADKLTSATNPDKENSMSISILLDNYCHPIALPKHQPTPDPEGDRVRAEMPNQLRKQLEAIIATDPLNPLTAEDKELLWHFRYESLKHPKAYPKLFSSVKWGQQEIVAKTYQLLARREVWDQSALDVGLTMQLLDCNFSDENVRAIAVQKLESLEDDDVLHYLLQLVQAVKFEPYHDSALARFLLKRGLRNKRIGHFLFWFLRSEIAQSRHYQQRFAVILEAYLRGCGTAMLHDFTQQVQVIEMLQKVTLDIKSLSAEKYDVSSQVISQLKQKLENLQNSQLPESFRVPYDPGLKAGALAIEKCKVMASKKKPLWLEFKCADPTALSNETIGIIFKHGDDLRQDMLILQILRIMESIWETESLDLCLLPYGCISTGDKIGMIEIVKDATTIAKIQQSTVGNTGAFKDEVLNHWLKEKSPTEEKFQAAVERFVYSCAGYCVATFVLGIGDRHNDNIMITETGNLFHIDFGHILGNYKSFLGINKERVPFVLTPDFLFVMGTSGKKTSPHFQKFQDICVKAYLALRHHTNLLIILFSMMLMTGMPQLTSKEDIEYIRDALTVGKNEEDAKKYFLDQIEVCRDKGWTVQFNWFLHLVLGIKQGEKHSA

Compound	IC50 [nM]
CNS(=O)(=O)c1cccc(-c2nn(C)c3nc(N)ncc23)c1	< 2000
Cn1nc(-c2cc(F)c(OCCN3CCCC3)c(Br)c2)c2cnc(N)nc21	< 2000
CC(=O)c1cccc(-c2nn(C)c3nc(N)ncc23)c1	< 2000
Cn1nc(-c2cc(F)c(O)c(Cl)c2)c2cnc(N)nc21	< 2000
CCOc1ccc2ccccc2c1-c1nn(C)c2nc(N)ncc12	< 2000
Cn1nc(-c2ccc3ccoc3c2)c2cnc(N)nc21	< 2000
Cn1nc(-c2cccc(S(C)(=O)=O)c2)c2cnc(N)nc21	< 2000
